Results on one compound are retold here after article PMC6912361, “Systemic Toxicity Reported for CDK8/19 Inhibitors CCT251921 and MSC2530818 Is Not Due to Target Inhibition” (Cells, 2019).

In series [1] the target is T1, CDK19 (Homo sapiens, UniProt Q9BWU1). Description: KdELECT Kd determination, CDK19. The class given is binding. Details: purchased DiscoverX. Here is the method: (§1) To determine dissociation constants (Kds) of compounds on different targets, an 11-point 3-fold serial dilution of each test compound was tested in independent duplicate assays.
Target sequence in this assay (Q9BWU1 whole entry): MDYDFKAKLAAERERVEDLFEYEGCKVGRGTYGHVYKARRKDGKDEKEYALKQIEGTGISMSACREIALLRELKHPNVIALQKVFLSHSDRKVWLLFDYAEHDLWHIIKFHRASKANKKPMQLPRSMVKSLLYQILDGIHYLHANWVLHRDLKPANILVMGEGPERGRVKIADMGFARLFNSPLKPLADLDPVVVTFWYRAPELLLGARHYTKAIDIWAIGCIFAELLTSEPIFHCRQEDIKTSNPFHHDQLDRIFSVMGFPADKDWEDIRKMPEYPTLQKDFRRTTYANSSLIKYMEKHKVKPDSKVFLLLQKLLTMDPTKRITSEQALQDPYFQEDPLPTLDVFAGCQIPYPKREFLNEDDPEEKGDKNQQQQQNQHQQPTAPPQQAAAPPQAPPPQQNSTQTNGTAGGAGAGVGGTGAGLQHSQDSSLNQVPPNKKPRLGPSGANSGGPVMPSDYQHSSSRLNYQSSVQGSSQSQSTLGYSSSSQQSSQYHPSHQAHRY
A further series addresses T2, GSK3B (Homo sapiens, UniProt P49841).
T2 construct: purchased DiscoverX
Description: KdELECT Kd determination, GSK3B. As to conditions: 11-point 3-fold serial dilution, duplicate; read-out: Kd for the inhibition of nucleotide binding, GSK3B. Here is the method: as §1

The subject of series [2] is dechorionated zebrafish embryos (Danio rerio, AB strain). Description: Zebrafish toxicity assay, mechanically dechorionated embryos (AB strain). The class given is in vivo. Conditions: 1 μM; starting after 72 hpt. Here is the method:
The toxicity screen using dechorionated zebrafish embryos (Danio rerio, AB strain) was performed by Arkana Laboratories, Little Rock, AR, as a service. The toxicity of different CDK8/19 inhibitors was evaluated in sterile 96-well plates with U-shaped bottoms. 12 wells (i.e., biological replicates) per test chemical and the vehicle control (0.1% DMSO) were used and the experiment was performed in triplicate. Treatment was performed via addition of 20 µL of 10× concentrations of each tested compound in 1% DMSO-containing egg water to each well containing one 24 hpf (hours post fertilization) mechanically-dechorionated embryo in 180 µL volume of egg water (i.e., 0.1% final DMSO concentration). The fish embryos cultured at 28.5 °C were examined at 24, 48, 72 and 96 h post treatment (hpt) and scored as “healthy”, “abnormal” or “dead”. Phenotypes observed and assessed as abnormal included: cardiac edema (intermediate and severe stages), overall edema, enlarged head, malformation of the eyes, curved body axis, shortened body axis and malformation of the tail. […] Positive control 3,4-dichloroaniline (3,4-DCA) was tested at 8 mg/L.

For series [3], the target named is T3, CDK8 (Homo sapiens, UniProt P49336). Description: Cell-based QPCR assay of CDK8/19-dependent gene expression, HEK293 CDK19 single-knockout (19KO) cells. Details: CDK19 single-knockout (19KO); endogenous in cells; host or cells: HEK293 CDK19 knockout (19KO). Conditions: 19KO, HEK293 19KO, 1 h pre-treatment, then 10 ng/mL TNFα 2 h.
Target sequence in this assay (P49336 whole entry): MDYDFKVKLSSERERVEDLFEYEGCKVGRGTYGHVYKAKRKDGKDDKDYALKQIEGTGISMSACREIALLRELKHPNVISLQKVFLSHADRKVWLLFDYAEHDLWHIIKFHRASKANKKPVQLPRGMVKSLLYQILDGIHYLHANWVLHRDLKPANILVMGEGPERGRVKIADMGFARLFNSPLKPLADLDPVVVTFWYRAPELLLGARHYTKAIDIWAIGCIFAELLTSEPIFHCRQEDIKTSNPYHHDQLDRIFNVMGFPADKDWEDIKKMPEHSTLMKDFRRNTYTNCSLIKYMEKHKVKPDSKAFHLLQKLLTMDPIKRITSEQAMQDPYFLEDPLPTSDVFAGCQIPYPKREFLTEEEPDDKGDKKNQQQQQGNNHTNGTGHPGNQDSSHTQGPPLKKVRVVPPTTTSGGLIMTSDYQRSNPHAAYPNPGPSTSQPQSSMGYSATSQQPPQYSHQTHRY
Target sequence in this assay (P24863 whole entry partner): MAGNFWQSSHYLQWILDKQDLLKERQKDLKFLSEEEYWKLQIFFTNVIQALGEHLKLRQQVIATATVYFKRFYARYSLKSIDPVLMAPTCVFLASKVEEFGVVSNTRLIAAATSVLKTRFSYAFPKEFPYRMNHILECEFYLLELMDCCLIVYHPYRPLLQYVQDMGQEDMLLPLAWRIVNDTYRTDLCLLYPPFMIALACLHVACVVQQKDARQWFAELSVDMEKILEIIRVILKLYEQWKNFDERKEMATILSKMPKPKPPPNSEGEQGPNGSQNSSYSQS
Description: (§2) CDK8/CDK19 single knockout and double knockout derivatives of human embryonic kidney (HEK) 293 cells (ATCC CRL-1573) were generated as previously described [18]. All cells were cultured in DMEM (high-glucose) media supplemented with 10% fetal bovine serum (FBS) and Penicillin-Streptomycin-Glutamine (1×) at 37 °C with 5% CO2 and routinely confirmed to be free of mycoplasma.
(§3) Total RNA was extracted using RNAeasy Mini Kit (Qiagen, Germantown, MD, USA) and 1 µg of total RNA was used to generate cDNA using iScript cDNA synthesis kit (Bio-Rad Laboratories, Hercules, CA, USA). Gene expression was quantified using iTaq Universal SYBR green super mix using CFX384 Real-Time System (Bio-Rad).
(§4) The IC50 values for different inhibitors in inhibiting CDK8/19-dependent gene expression were calculated using a three-parameter least square (ordinary) fitting method with GraphPad Prism 7.0 (GraphPad Software, San Diego, CA, USA). The Kruskal–Wallis non-parametric ANOVA was used to compare gene expression levels under no-inhibitor conditions between wild-type cells and knockout derivatives (8KO, 19KO and dKO) with GraphPad Prism 7.0.
(§5) Cells were pre-treated with different concentrations of CDK8/19 inhibitors for 1 h and then 10 ng/mL TNFα, an inducer of transcription factor NFκB, which is potentiated by CDK8/19 [5], was added for 2 h before RNA extraction. QPCR was carried out to quantify CDK8/19-regulated expression of NFκB-inducible genes CXCL1 and CXCL8 and the basal expression of MYC.
In series [4] the test system is non-dechorionated embryos of zebrafish TU strain. The series can be described thus: Zebrafish toxicity assay, non-dechorionated embryos (TU strain). The class given is in vivo. As to conditions: all the tested concentrations (0.5 μM, 1 μM and 2 μM); 3-5 days. Here is the method: The toxicity studies in non-dechorionated embryos of zebrafish TU strain were approved by the Institutional Animal Care and Use Committee of the University of South Carolina. The studies were conducted in sterile 24-well plates with one 24 hpf embryo in each well in a 1 mL volume of egg water. For each plate, 6 wells were treated with vehicle control and the other 18 wells (i.e., biological replicates) were treated with different CDK8/19 inhibitors at different concentrations. […] All the data from the plates with at least five healthy vehicle-treated embryos on day 5 were compiled together for final data analysis.

The next series has as its system dogs. Conditions: cited from earlier work.
Another series addresses T4, GSK3A (Homo sapiens, UniProt P49840).
T4 construct: purchased DiscoverX
The series can be described thus: KdELECT Kd determination, GSK3A. Conditions: 11-point 3-fold serial dilution, duplicate; read-out: Kd for the inhibition of nucleotide binding, GSK3A. The procedure: The screening platform employs an active site-directed competition binding assay to quantitatively measure interactions between test compounds and targeting kinases. […] To determine dissociation constants (Kds) of compounds on different targets, an 11-point 3-fold serial dilution of each test compound was tested in independent duplicate assays.
This assay has been previously used with many CDK8/19 inhibitors, including cortistatin A and its equipotent analog dCA [20, 21]; 15w.

The target of series [5] is T1, CDK19. Description: Cell-based QPCR assay of CDK8/19-dependent gene expression, HEK293 CDK8 single-knockout (8KO) cells. Details: CDK8 single-knockout (8KO); endogenous in cells; host or cells: HEK293 CDK8 knockout (8KO). As to conditions: 8KO, HEK293 8KO, 1 h pre-treatment, then 10 ng/mL TNFα 2 h.
Target sequence in this assay (Q9BWU1 whole entry): as the sequence (Q9BWU1 whole entry) above
Target sequence in this assay (P24863 whole entry partner): as the sequence (P24863 whole entry partner) above
Description: as §2, §3, §4, §5
Another series concerns the target T5, GSK3β (Homo sapiens, UniProt P49841).
T5 construct: purchased Promega
Description: ADP-Glo Kinase Assay, GSK3β kinase activity. It counts as biochemical. Conditions: 25 μM ATP, 60 min, room temperature. Here is the method: Effects of different compounds on GSK3β kinase activity were evaluated using ADP-Glo^TM Kinase Assay kit and GSK3β Kinase Enzyme System (Promega, Madison, WI, USA). Kinase reactions were carried out at room temperature for 60 min. Each reaction contained 1 ng GSK3β enzyme, 25 μM ATP, 0.2 μg/μL GSK3 substrate and test compounds at different concentrations. Equal volume of ADP-Glo reagent was then added to kinase reaction and incubated at room temperature for 40 min, followed by the addition of Kinase Detection Reagent and incubation at room temperature for another 20 min. Bioluminescence signals were measured in 384-well plates using ChemiDoc Touch™ (Bio-Rad) and ImageLab software (Bio-Rad, Version 5.2.1 build 11). Effects of inhibitors were presented as relative kinase activity, calculated from […].
Background: In ADP-Glo the light output rises with the ADP produced.

Series [6] addresses T3, CDK8. Description: KdELECT Kd determination, CDK8. It counts as binding. Details: purchased DiscoverX. The procedure: as §1
Target sequence in this assay (P49336 whole entry): as the sequence (P49336 whole entry) above
A further series deals with rats. As to conditions: cited from earlier work.
On the set-up of series [7]: method as in PMID 27935476. As to conditions: colon cancer and leukemia mouse xenograft models; cited from earlier work.
The subject of a further series is CDK8/19. Description: Cell-based QPCR assay of CDK8/19-dependent gene expression, HEK293 parental (WT) cells. The arrangement: species or system human. As to conditions: HEK293 WT, 1 h pre-treatment, then 10 ng/mL TNFα 2 h, QPCR.

Where “and” joins values, the source holds several entries; their conditions need not be identical. Identical values can stand only once. Like-named read-outs stand apart in the source and are kept apart here.

T5 sequence (P49841 whole entry): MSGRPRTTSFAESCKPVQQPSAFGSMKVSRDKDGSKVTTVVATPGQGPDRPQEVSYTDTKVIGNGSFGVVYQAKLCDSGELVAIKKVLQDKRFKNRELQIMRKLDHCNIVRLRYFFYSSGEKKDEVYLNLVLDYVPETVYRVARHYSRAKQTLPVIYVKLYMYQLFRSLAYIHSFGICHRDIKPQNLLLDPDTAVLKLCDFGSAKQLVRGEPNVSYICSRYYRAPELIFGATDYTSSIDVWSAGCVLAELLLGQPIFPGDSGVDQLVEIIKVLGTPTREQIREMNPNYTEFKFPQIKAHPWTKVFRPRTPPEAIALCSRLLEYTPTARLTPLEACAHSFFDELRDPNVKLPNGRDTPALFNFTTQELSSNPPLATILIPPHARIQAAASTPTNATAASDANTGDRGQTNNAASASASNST
T4 sequence (P49840 whole entry): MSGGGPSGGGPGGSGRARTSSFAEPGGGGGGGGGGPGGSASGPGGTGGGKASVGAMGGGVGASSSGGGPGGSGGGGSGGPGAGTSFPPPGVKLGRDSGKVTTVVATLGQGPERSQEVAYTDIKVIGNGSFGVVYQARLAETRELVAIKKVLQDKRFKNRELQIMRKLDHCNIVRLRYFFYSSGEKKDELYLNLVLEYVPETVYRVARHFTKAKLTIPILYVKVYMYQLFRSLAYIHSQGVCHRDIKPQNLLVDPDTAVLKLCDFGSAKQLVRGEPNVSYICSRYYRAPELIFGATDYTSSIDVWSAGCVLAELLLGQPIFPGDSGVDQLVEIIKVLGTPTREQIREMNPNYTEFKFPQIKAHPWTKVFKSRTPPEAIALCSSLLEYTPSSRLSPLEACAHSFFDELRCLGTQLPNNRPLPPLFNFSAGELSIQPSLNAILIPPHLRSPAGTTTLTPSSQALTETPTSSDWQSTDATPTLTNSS
T2 sequence (P49841 whole entry): as the sequence (P49841 whole entry) above

In general, Kd refers to the constant that tells how readily two partners part at equilibrium. For orientation: IC50 means the concentration that inhibits the measured activity by half. For `Cc1n[nH]c2ncc(C(=O)N3CCC[C@H]3c3ccc(Cl)cc3)cc12` [Cmpd4], the dissociation constant Kd on CDK19 [1] is 94 nM; on GSK3B, 190 nM; on GSK3A, 450 nM; on CDK8 [6], 115 nM. Besides, in [2], the “Toxicity in dechorionated AB zebrafish larvae” value is recorded as “severe toxicity”. The concentration for half-maximal inhibition (IC50) on CDK8 [3] (IC50, CXCL1 mRNA expression) is 3.2 nM; at CDK8 [3] (IC50, CXCL8 mRNA expression), 3.1 nM; on CDK8 [3] (IC50, MYC mRNA expression) it was 1.9 nM; at CDK19 [5] (IC50, CXCL1 mRNA expression), 2.4 nM; at CDK19 [5] (IC50, CXCL8 mRNA expression) it was 1.9 nM; at CDK19 [5] (IC50, MYC mRNA expression) it was 1.4 nM. The half-maximal inhibitory concentration (IC50) against GSK3β is ~400 nM and 396 nM; in the series on CDK8/19 (read-out: IC50, CXCL1 mRNA expression, WT), 1.8 nM; in the series on CDK8/19 (read-out: IC50, CXCL8 mRNA expression, WT), 2.1 nM; with CDK8/19 (read-out: IC50, MYC mRNA expression, WT), 2.4 nM. Further, in series [4], the “Toxicity in TU strain zebrafish embryos” value is “very strong toxicity”. The Toxicity in dogs result with dogs was “multiple and striking toxicities, including lethality”. Besides, the Toxicity in rats result in the series with rats is “multiple and striking toxicities, including lethality”. Besides, the “Weight loss in mice” value in [7] is listed as “detectable weight loss”.
